Experimental data reported in patent publication US6503881B2 (priority 1996, dated 2003).
Where two headings read alike, the source gives them in different places.

System: bacterial isolates
Conditions: for PIC: with Gentamicin

W R I W K P K W R L P K W [MBI 11D18CN]
Gentamicin MIC + Peptide (A. baumannii ABI001): 16 µg/mL | Peptide MIC + Gentamicin (A. baumannii ABI001): 0.5 µg/mL | Peptide MIC + Tobramycin (A. baumannii ABI001): 4 µg/mL | Peptide MIC Alone (A. baumannii ABI001): 64 µg/mL | Tobramycin MIC + Peptide (A. baumannii ABI001): 4 µg/mL | Gentamicin MIC + Peptide (A. baumannii ABI002): 8 µg/mL | Peptide MIC + Gentamicin (A. baumannii ABI002): 2 µg/mL | Peptide MIC + Tobramycin (A. baumannii ABI002): 0.5 µg/mL | Peptide MIC Alone (A. baumannii ABI002): 16 µg/mL | Tobramycin MIC + Peptide (A. baumannii ABI002): 4 µg/mL | Peptide MIC + Piperacillin (A. calcoaceticus 3): 8 µg/mL | Peptide MIC Alone (A. calcoaceticus 3): 32 µg/mL | Piperacillin MIC + Peptide (A. calcoaceticus 3): 8 µg/mL | Peptide MIC + Piperacillin (E. cloacae 9): 16 µg/mL | Peptide MIC Alone (E. cloacae 9): 64 µg/mL | Piperacillin MIC + Peptide (E. cloacae 9): 16 µg/mL | Peptide MIC + Piperacillin (E. cloacae 10): 8 µg/mL | Peptide MIC Alone (E. cloacae 10): 32 µg/mL | Piperacillin MIC + Peptide (E. cloacae 10): 64 µg/mL | Gentamicin MIC + Peptide (E. coli ECO006): 16 µg/mL | Peptide MIC + Gentamicin (E. coli ECO006): 0.125 µg/mL | Mupirocin MIC + Peptide (E. coli SBECO1): 30 µg/mL | Peptide MIC + Mupirocin (E. coli SBECO1): 0.125 µg/mL | Peptide MIC Alone (E. coli SBECO1 (Mupirocin section)): 2 µg/mL | Mupirocin MIC + Peptide (E. coli SBECO2): 30 µg/mL | Peptide MIC + Mupirocin (E. coli SBECO2): 0.5 µg/mL | Peptide MIC Alone (E. coli SBECO2 (Mupirocin section)): 16 µg/mL | Peptide MIC + Vancomycin (E. faecalis EFS001): 2 µg/mL | Peptide MIC Alone (E. faecalis EFS001): 8 µg/mL | Vancomycin MIC + Peptide (E. faecalis EFS001): 0.125 µg/mL | Peptide MIC + Vancomycin (E. faecalis EFS004): 2 µg/mL | Peptide MIC Alone (E. faecalis EFS004): 8 µg/mL | Vancomycin MIC + Peptide (E. faecalis EFS004): 0.5 µg/mL | Gentamicin MIC + Peptide (E. faecalis EFS008): 8 µg/mL | Peptide MIC + Gentamicin (E. faecalis EFS008): 0.125 µg/mL | Peptide MIC + Vancomycin (E. faecalis EFS011): 0.125 µg/mL | Peptide MIC Alone (E. faecalis EFS011): 64 µg/mL | Vancomycin MIC + Peptide (E. faecalis EFS011): 32 µg/mL | Peptide MIC + Vancomycin (E. faecalis EFS012): 2 µg/mL | Peptide MIC Alone (E. faecalis EFS012): 16 µg/mL | Vancomycin MIC + Peptide (E. faecalis EFS012): 64 µg/mL | Peptide MIC + Vancomycin (E. faecalis EFS014): 0.5 µg/mL | Peptide MIC Alone (E. faecalis EFS014): 4 µg/mL | Vancomycin MIC + Peptide (E. faecalis EFS014): 4 µg/mL | Gentamicin MIC + Peptide (E. faecium EFM004): 8 µg/mL | Peptide MIC + Gentamicin (E. faecium EFM004): 0.125 µg/mL | Peptide MIC + Vancomycin (E. faecium EFM004): 2 µg/mL | Peptide MIC Alone (E. faecium EFM004): 8 µg/mL | Vancomycin MIC + Peptide (E. faecium EFM004): 64 µg/mL | Peptide MIC + Vancomycin (E. faecium EFM009): 0.125 µg/mL | Peptide MIC Alone (E. faecium EFM009): 8 µg/mL | Vancomycin MIC + Peptide (E. faecium EFM009): 32 µg/mL | Peptide MIC + Vancomycin (E. faecium EFM010): 0.25 µg/mL | Peptide MIC Alone (E. faecium EFM010): 8 µg/mL | Vancomycin MIC + Peptide (E. faecium EFM010): 64 µg/mL | Peptide MIC + Vancomycin (E. faecium EFM011): 2 µg/mL | Peptide MIC Alone (E. faecium EFM011): 8 µg/mL | Vancomycin MIC + Peptide (E. faecium EFM011): 64 µg/mL | Peptide MIC + Piperacillin (H. influenzae 3): 8 µg/mL | Peptide MIC Alone (H. influenzae 3): >128 µg/mL | Piperacillin MIC + Peptide (H. influenzae 3): 0.25 µg/mL | Peptide MIC + Piperacillin (H. influenzae SB1): 4 µg/mL | Peptide MIC Alone (H. influenzae SB1): >128 µg/mL | Piperacillin MIC + Peptide (H. influenzae SB1): 0.25 µg/mL | Gentamicin MIC + Peptide (K. pneumonia KP020): 32 µg/mL | Peptide MIC + Gentamicin (K. pneumonia KP020): 0.125 µg/mL | Peptide MIC Alone (K. pneumonia KP020 (Gentamicin section)): 32 µg/mL | Peptide MIC + Piperacillin (P. aeruginosa 23): 8 µg/mL | Peptide MIC Alone (P. aeruginosa 23): 64 µg/mL | Piperacillin MIC + Peptide (P. aeruginosa 23): 32 µg/mL | Peptide MIC + Piperacillin (P. aeruginosa 41): 16 µg/mL | Peptide MIC Alone (P. aeruginosa 41): >128 µg/mL | Piperacillin MIC + Peptide (P. aeruginosa 41): 32 µg/mL | Mupirocin MIC + Peptide (P. aeruginosa PA4): 30 µg/mL | Peptide MIC + Mupirocin (P. aeruginosa PA4): 64 µg/mL | Peptide MIC Alone (P. aeruginosa PA4 (Mupirocin section)): 128 µg/mL | Gentamicin MIC + Peptide (P. aeruginosa PA022): 8 µg/mL | Peptide MIC + Gentamicin (P. aeruginosa PA022): 0.125 µg/mL | Peptide MIC Alone (P. aeruginosa PA022 (Gentamicin section)): 8 µg/mL | Ciprofloxacin MIC + Peptide (P. aeruginosa PA24): 4 µg/mL | Peptide MI + Ciprofloxacin (P. aeruginosa PA24): 16 µg/mL | Peptide MI Alone (P. aeruginosa PA24 (Ciprofloxacin section)): >128 µg/mL | Gentamicin MIC + Peptide (P. aeruginosa PA041): 0.125 µg/mL | Peptide MIC + Gentamicin (P. aeruginosa PA041): 8 µg/mL | Peptide MIC Alone (P. aeruginosa PA041 (Gentamicin section)): 64 µg/mL | Ciprofloxacin MIC + Peptide (P. aeruginosa PA77): 0.5 µg/mL | Peptide MI + Ciprofloxacin (P. aeruginosa PA77): 32 µg/mL | Peptide MI Alone (P. aeruginosa PA77 (Ciprofloxacin section)): 128 µg/mL | Mupirocin MIC + Peptide (P. aeruginosa SBPA1): 100 µg/mL | Peptide MIC + Mupirocin (P. aeruginosa SBPA1): 32 µg/mL | Peptide MIC Alone (P. aeruginosa SBPA1 (Mupirocin section)): 128 µg/mL | FIC (Piperacillin + peptide, A. calcoaceticus 3): 0.38 | FIC (Piperacillin + peptide, E. cloacae 9): 0.31 | FIC (Piperacillin + peptide, E. cloacae 10): 0.50 | FIC (Piperacillin + peptide, H. influenzae 3): 0.53 | FIC (Piperacillin + peptide, H. influenzae SB1): 0.52 | FIC (Piperacillin + peptide, P. aeruginosa 23): 0.38 | FIC (Piperacillin + peptide, P. aeruginosa 41): 0.56 | FIC (Piperacillin + peptide, S. aureus 19 MRSA): 0.38 | FIC (Piperacillin + peptide, S. aureus SB2MRSA): 0.50 | FIC (Piperacillin + peptide, S. maltophilia 2): 0.50 | FIC (Piperacillin + peptide, S. marcescens 1): 0.14 | Peptide MIC + Piperacillin (S. aureus 19 MRSA): 1 µg/mL | Peptide MIC Alone (S. aureus 19 MRSA): 4 µg/mL | Piperacillin MIC + Peptide (S. aureus 19 MRSA): 16 µg/mL | Gentamicin MIC + Peptide (S. aureus SA014 MRSA): 2 µg/mL | Peptide MIC + Gentamicin (S. aureus SA014 MRSA): 0.125 µg/mL | Peptide MIC Alone (S. aureus SA014 MRSA (Gentamicin section)): 2 µg/mL | Peptide MIC + Tobramycin (S. aureus SA018 MRSA): 16 µg/mL | Peptide MIC Alone (S. aureus SA018 MRSA): 32 µg/mL | Tobramycin MIC + Peptide (S. aureus SA018 MRSA): 4 µg/mL | Gentamicin MIC + Peptide (S. aureus SA025 MRSA): 1 µg/mL | Peptide MIC + Gentamicin (S. aureus SA025 MRSA): 0.125 µg/mL | Peptide MIC Alone (S. aureus SA025 MRSA (Gentamicin section)): 1 µg/mL | Peptide MIC + Piperacillin (S. aureus SB2MRSA): 0.5 µg/mL | Peptide MIC Alone (S. aureus SB2MRSA): 2 µg/mL | Piperacillin MIC + Peptide (S. aureus SB2MRSA): 32 µg/mL | Gentamicin MIC + Peptide (S. epidermidis SE071): 4 µg/mL | Peptide MIC + Gentamicin (S. epidermidis SE071): 0.125 µg/mL | Peptide MIC Alone (S. epidermidis SE071 (Gentamicin section)): 8 µg/mL | Gentamicin MIC + Peptide (S. epidermidis SE074): 4 µg/mL | Peptide MIC + Gentamicin (S. epidermidis SE074): 0.125 µg/mL | Peptide MIC Alone (S. epidermidis SE074 (Gentamicin section)): 4 µg/mL | Peptide MIC + Tobramycin (S. haemolyticus SHA001): 1 µg/mL | Peptide MIC Alone (S. haemolyticus SHA001): 2 µg/mL | Tobramycin MIC + Peptide (S. haemolyticus SHA001): 0.125 µg/mL | Peptide MIC + Piperacillin (S. maltophilia 2): 8 µg/mL | Peptide MIC Alone (S. maltophilia 2): 32 µg/mL | Piperacillin MIC + Peptide (S. maltophilia 2): 16 µg/mL | Gentamicin MIC + Peptide (S. maltophilia SMA016): 16 µg/mL | Peptide MIC + Gentamicin (S. maltophilia SMA016): 16 µg/mL | Peptide MIC Alone (S. maltophilia SMA016 (Gentamicin section)): 64 µg/mL | Gentamicin MIC + Peptide (S. maltophilia SMA019): 4 µg/mL | Peptide MIC + Gentamicin (S. maltophilia SMA019): 0.5 µg/mL | Peptide MIC Alone (S. maltophilia SMA019 (Gentamicin section)): 8 µg/mL | Peptide MIC + Tobramycin (S. maltophilia SMA027): 16 µg/mL | Peptide MIC Alone (S. maltophilia SMA027): >128 µg/mL | Tobramycin MIC + Peptide (S. maltophilia SMA027): 4 µg/mL | Peptide MIC + Tobramycin (S. maltophilia SMA029): 4 µg/mL | Peptide MIC Alone (S. maltophilia SMA029): 32 µg/mL | Tobramycin MIC + Peptide (S. maltophilia SMA029): 4 µg/mL | Peptide MIC + Piperacillin (S. marcescens 1): 4 µg/mL | Peptide MIC Alone (S. marcescens 1): >128 µg/mL | Piperacillin MIC + Peptide (S. marcescens 1): 8 µg/mL | Mupirocin MIC + Peptide (S. marcescens SBSM1): 100 µg/mL | Peptide MIC + Mupirocin (S. marcescens SBSM1): 16 µg/mL | Peptide MIC Alone (S. marcescens SBSM1 (Mupirocin section)): >128 µg/mL | Mupirocin MIC + Peptide (S. marcescens SBSM2): 100 µg/mL | Peptide MIC + Mupirocin (S. marcescens SBSM2): 64 µg/mL | Peptide MIC Alone (S. marcescens SBSM2 (Mupirocin section)): >128 µg/mL | FIC (Tobramycin + peptide, A. baumannii ABI001): 0.31 | FIC (Tobramycin + peptide, A. baumannii ABI002): 0.53 | FIC (Tobramycin + peptide, S. aureus SA018 MRSA): 0.56 | FIC (Tobramycin + peptide, S. haemolyticus SHA001): 0.53 | FIC (Tobramycin + peptide, S. maltophilia SMA027): 0.19 | FIC (Tobramycin + peptide, S. maltophilia SMA029): 0.16 | FIC (Vancomycin + peptide, E. faecalis EFS001): 0.38 | FIC (Vancomycin + peptide, E. faecalis EFS004): 0.50 | FIC (Vancomycin + peptide, E. faecalis EFS011): 0.50 | FIC (Vancomycin + peptide, E. faecalis EFS012): 0.38 | FIC (Vancomycin + peptide, E. faecalis EFS014): 0.16 | FIC (Vancomycin + peptide, E. faecium EFM004): 0.50 | FIC (Vancomycin + peptide, E. faecium EFM009): 0.52 | FIC (Vancomycin + peptide, E. faecium EFM010): 0.28 | FIC (Vancomycin + peptide, E. faecium EFM011): 0.50 | FIC (with Ciprofloxacin, P. aeruginosa PA24): 0.31 | FIC (with Ciprofloxacin, P. aeruginosa PA77): 0.50 | PIC (A. baumannii ABI001): 0.27 | PIC (A. baumannii ABI002): 0.56 | PIC (E. coli ECO006): 0.27 | PIC (E. faecalis EFS008): 0.19 | PIC (E. faecium EFM004): 0.05 | PIC (K. pneumonia KP020): 0.50 | PIC (P. aeruginosa PA022): 0.52 | PIC (P. aeruginosa PA041): 0.14 | PIC (S. aureus SA014 MRSA): 0.13 | PIC (S. aureus SA025 MRSA): 0.14 | PIC (S. epidermidis SE071): 0.27 | PIC (S. epidermidis SE074): 0.09 | PIC (S. maltophilia SMA016): 0.38 | PIC (S. maltophilia SMA019): 0.19 | FIC (with Mupirocin, E. coli SBECO1): 0.36 | FIC (with Mupirocin, E. coli SBECO2): 0.06 | FIC (with Mupirocin, P. aeruginosa PA4): 0.53 | FIC (with Mupirocin, P. aeruginosa SBPA1): 0.35 | FIC (with Mupirocin, S. marcescens SBSM1): 0.16 | FIC (with Mupirocin, S. marcescens SBSM2): 0.35
